The text below walks through data of ChEMBL document CHEMBL2202954, “The effect of PLC-γ2 inhibitors on the growth of human tumour cells” (2012).

Type in all cases: functional
For assay [1], the system named is COLO 205. Briefly: Cytotoxicity against human COLO205 cells assessed as cellular growth at 10 uM by SRB assay.
Assay [2] is described as follows: Cytotoxicity against human NCI-ADR-RES cells assessed as cellular growth at 10 uM by SRB assay.
In assay [3] the test system is SNB-19. As to the kind of experiment: Cytotoxicity against human SNB19 cells assessed as cellular growth at 10 uM by SRB assay. (In general: The SRB assay estimates cell density from bound dye.)
Assay [4] deals with SNB-75. Briefly: Cytotoxicity against human SNB75 cells assessed as cellular growth at 10 uM by SRB assay.
The subject of assay [5] is CCRF-CEM. As to the kind of experiment: Cytotoxicity against human CCRF-CEM cells assessed as cellular growth at 10 uM by SRB assay.
The subject of assay [6] is EKVX. Briefly: Cytotoxicity against human EKVX cells assessed as cellular growth at 10 uM by SRB assay.
In assay [7] the test system is A498. Briefly: Cytotoxicity against human A498 cells assessed as cellular growth at 10 uM by SRB assay.
Assay [8] deals with UO-31. Briefly: Cytotoxicity against human UO31 cells assessed as cellular growth at 10 uM by SRB assay.
For assay [9], the system named is U-251. Briefly: Cytotoxicity against human U251 cells assessed as cellular growth at 10 uM by SRB assay.
Assay [10] deals with SK-OV-3. Briefly: Cytotoxicity against human SKOV3 cells assessed as cellular growth at 10 uM by SRB assay.
Assay [11] relates to NCI-H460. Briefly: Cytotoxicity against human NCI-H460 cells assessed as cellular growth at 10 uM by SRB assay.
In assay [12] the test system is MDA-MB-468. As to the kind of experiment: Cytotoxicity against human MDA-MB-468 cells assessed as cellular growth at 10 uM by SRB assay.
The subject of assay [13] is OVCAR-8. As to the kind of experiment: Cytotoxicity against human OVCAR8 cells assessed as cellular growth at 10 uM by SRB assay.
Assay [14] relates to UACC-257. As to the kind of experiment: Cytotoxicity against human UACC257 cells assessed as cellular growth at 10 uM by SRB assay.
The subject of assay [15] is IGROV-1. As to the kind of experiment: Cytotoxicity against human IGROV1 cells assessed as cellular growth at 10 uM by SRB assay.
The subject of assay [16] is SK-MEL-2. Briefly: Cytotoxicity against human SK-MEL-2 cells assessed as cellular growth at 10 uM by SRB assay.
Assay [17] has as its system KM12. As to the kind of experiment: Cytotoxicity against human KM12 cells assessed as cellular growth at 10 uM by SRB assay.
Assay [18] relates to RXF 393. Briefly: Cytotoxicity against human RXF393 cells assessed as cellular growth at 10 uM by SRB assay.
Assay [19] deals with A549. Briefly: Cytotoxicity against human A549 cells assessed as cellular growth at 10 uM by SRB assay.
Assay [20] has as its system TK-10. Briefly: Cytotoxicity against human TK10 cells assessed as cellular growth at 10 uM by SRB assay.

Take `Cc1ccc(C(=O)/C=C2/Nc3ccc(C)cc3OC2=O)cc1`: the Activity amounted to 120.49% in assay [1]; 108.28% in [2]; 104.52% in [3]; 72.48% in [4]; 77.12% in [5]; 92.88% in [6]. Further, the Activity in [7] is given as 86.34%; in assay [8] it was 94.47%; in assay [9], 108.93%; in [10], 115.37%; in [11], 117.71%; in assay [12], 112.98%. Further, the Activity is 102.51% in assay [13]; 103.75% in [14]; 115.36% in [15]; 123.75% in assay [16]; 106.74% in [17]; 112.41% in assay [18]. In addition, the values for the Activity in assay [19] and in assay [20] were 105.68% and 135.06%, respectively.

`Cc1cc(C)c(NC(=O)c2sc3nc4c(cc3c2N)C(=O)CCC4)c(C)c1`: the Activity in assay [1] is given as -6.14%; in assay [2] it was -8.04%; in assay [3], 40.22%; in assay [4], 0%; in assay [5], 22.12%; in assay [6] it was 54.36%. Also, the Activity in assay [7] was -7.37%; in assay [8], 56.95%; in [9], 21.13%; in assay [10], 10.43%; in [11], 6.43%; in assay [12], -27.16%. Further, the Activity in assay [13] is 45.64%; in [14], 48.69%; in assay [15], 35.36%; in assay [16], 36.14%; in assay [17], 27.28%; in [18], -6.65%. In addition, the Activity worked out at 23.05% in assay [19] and 44.75% in [20].

With `Cc1cc(C)c(NC(=O)c2sc3nc4c(cc3c2N)C(=O)CC(C)(C)C4)c(C)c1`, the Activity stood at 117% in assay [1]; 95.48% in assay [2]; 122.53% in assay [3]; 105.78% in assay [4]; 90.08% in assay [5]; 92.06% in [6]. Moreover, the Activity in [7] was determined as 89.84%; in [8] it was 99.05%; in [9] it was 99.68%; in [10], 116.6%; in assay [11], 102.63%; in [12] it was 85.24%. For the same compound, the Activity in assay [13] stood at 107.09%; in [14], 101.32%; in assay [15] it was 95.36%; in [16], 119.22%; in [17], 112.78%; in [18], 105.64%. For the same compound, the Activity is 96.6% in assay [19] and 97.91% in assay [20].

`COc1ccc(S(=O)(=O)n2ccc(-c3ccc4c(c3)CCC(C)(C)O4)n2)cc1`: the Activity is recorded as 107.28% in assay [1]; 57.3% in assay [2]; 87.12% in assay [3]; 83.99% in assay [4]; 58.86% in [5]; 51.56% in assay [6]. Further, the Activity in assay [7] came to 89.14%; in assay [8], 78.12%; in [9], 84.18%; in assay [10] it was 90.41%; in [11], 75.37%; in assay [12] it was 36.58%. The Activity in [13] is on record as 83.81%; in assay [14], 57.41%; in assay [15], 90.82%; in assay [16], 84.41%; in assay [17], 81.91%; in assay [18] it was 110.14%. Moreover, the figures for the Activity in assay [19] and in assay [20] were 73.96% and 68.22%, respectively.

Take `O=C(Nc1nc2ccc(Cl)cc2s1)c1ccc(Cl)cc1`: the Activity is listed as 105.29% in [1]; 100.28% in [2]; 125.32% in assay [3]; 100.74% in [4]; 96.23% in assay [5]; 94% in assay [6]. The Activity in assay [7] is 94.69%; in assay [8] it was 97.6%; in [9] it was 94.55%; in [10] it was 89.31%; in [11], 98.55%; in assay [12] it was 114.39%. For the same compound, the Activity in [13] was 98.61%; in [14], 94.31%; in assay [15], 119.2%; in assay [16] it was 111.04%; in assay [17] it was 102.62%; in assay [18], 111.55%. In addition, the figures for the Activity in assay [19] and in [20] were 94.26% and 131.87%, respectively.

With `COc1ccc(NC(=O)c2sc3nc4c(cc3c2N)C(=O)CCC4)cc1`, the Activity is given as 122.21% in assay [1]; 103.46% in assay [2]; 116.74% in [3]; 103.13% in [4]; 88.17% in assay [5]; 102.57% in [6]. Besides, the Activity in assay [7] worked out at 39.38%; in [8] it was 106.6%; in assay [9] it was 106.61%; in assay [10], 115.02%; in assay [11], 96.07%; in [12], 87.19%. Moreover, the Activity in assay [13] is recorded as 107.58%; in assay [14], 117.22%; in assay [15], 114.88%; in [16], 114.87%; in assay [17], 105.15%; in assay [18], 101.13%. The Activity in assay [19] came out at 97.44%; in assay [20], 103.14%.

`Nc1c(C(=O)Nc2cccc(Cl)c2)sc2nc3c(cc12)C(=O)CCC3`: the Activity is 10.22% in assay [1]; 17.69% in assay [2]; 38.19% in [3]; 25.91% in assay [4]; 13.46% in assay [5]; 58.16% in assay [6]. Also, the Activity in assay [7] is 49.32%; in assay [8] it was 57.11%; in assay [9], 46.41%; in assay [10] it was 35.17%; in assay [11], 10.27%; in assay [12], -10.56%. In addition, the Activity in [13] was 75.34%; in assay [14], 68.88%; in assay [15] it was 52.39%; in assay [16], 69.74%; in assay [17], 21.64%; in assay [18], 25.93%. The Activity is reported as 28.25% in assay [19] and 64.95% in assay [20].

Take `Clc1cccc(-c2nc(-c3cccs3)no2)c1`: the Activity in [1] was 109.49%; in assay [2], 103.45%; in [3], 105.12%; in assay [4], 88.55%; in assay [5], 91.91%; in assay [6], 85.39%. Besides, the Activity in [7] is reported as 107.84%; in assay [8], 71.35%; in assay [9] it was 84.62%; in [10], 99.21%; in assay [11] it was 97.36%; in assay [12] it was 44.69%. Moreover, the Activity in assay [13] turned out to be 101.14%; in [14] it was 86.41%; in [15] it was 77.14%; in assay [16], 103.17%; in [17] it was 102.96%; in [18], 114.21%. Besides, the Activity amounted to 94.77% in assay [19] and 74.63% in assay [20].
